The nature of data set [1]: Peptide solubility in water. The class given is physicochemical.
The test system of the next data set is PBMCs. The data set can be described thus: Cellular stimulation assay: PBMCs incubated with individual peptides DMB 1011 to DMB 1016, TNFα and IL6 by AlphaLisa. The class given is cell-based, human. The following applies: for Stimulation response of peptides with same sequence but only one or two citrullines (in words): compared with fully citrullinated peptide; for Stimulation of cells to produce TNF and IL-6 (in words): fibrinogen based peptides with 3 citrulline residues. How it is done:
Experiment 2. Cytokine Production after PBMC Stimulation Using Individual Peptides from DMB 1011 to DMB 1016
Experimental setting: Peripheral blood mononuclear cells (PBMCs) were prepared from freshly collected blood using a Ficoll gradient method. The cellular stimulation assay was performed by incubating PBMCs with individual peptides DMB 1011 to DMB 1016. Approximately 300,000 to 500,000 PBMC cells were used for each stimulation assay in a cell culture AIM V serum free medium (Life Technologies) within a 96 well round bottom plate. Concentrations of TNFα and IL6 in culture supernatants were determined after 20 hrs incubation using the AlphaLisa® method.
A general note: Alpha assays give light when donor and acceptor beads are brought close together.

In another data set the test system is PBMCs from RA patients. Kind of data set: Cellular stimulation assay: PBMCs incubated with individual peptides DMB 1001-DMB 1010, cytokines in supernatant by AlphaLisa. The class given is cell-based, human. The following applies: peptide 10 μg/ml, 20 hrs incubation. How it is done:
Experiment 1: Cytokine Production after Stimulation of PBMCs from RA Patients with Individual Peptides DMB 1001-DMB 1010
Experimental setting: Peripheral blood mononuclear cells (PBMCs) were prepared from freshly collected blood using a Ficoll gradient method. The cellular stimulation assay was performed by incubation of PBMCs with the individual peptides DMB 1001-DMB 1010 at a concentration of 10 μg/ml. Approximately 300,000 to 500,000 PBMC cells were used for each stimulation assay in a cell culture AIM V serum free medium (Life Technologies) within a 96 well round bottom plate. TNFα, IL6 and IL1b concentrations in culture supernatants were determined using the AlphaLisa® method after 20 hrs of incubation.

Entries after “also recorded” stand apart in the source; their conditions may differ. Like-named read-outs stand apart in the source and are kept apart here. Square brackets hold non-standard residues; d marks the D form. Ends that are not written are not given here. Peptide text beside a SMILES is read from it. Cit = NC(=O)NCCC[C@H](N)C(=O)O

Take `CC(C)C[C@H](NC(=O)[C@H](CCCNC(N)=O)NC(=O)[C@@H](NC(=O)[C@H](C)NC(=O)[C@H](CO)NC(=O)[C@H](CO)NC(=O)[C@H](CCCNC(N)=O)NC(=O)[C@@H](NC(=O)[C@H](C)NC(=O)[C@H](Cc1ccc(O)cc1)NC(=O)[C@@H](N)C(C)C)[C@@H](C)O)C(C)C)C(=O)N[C@@H](CCCNC(N)=O)C(=O)N[C@@H](CO)C(=O)N[C@@H](CO)C(=O)N[C@H](C(=O)N1CCC[C@H]1C(=O)O)C(C)C` [DMB 1001, VYAT[Cit]SSAV[Cit]L[Cit]SSVP] (H-VYAT[Cit]SSAV[Cit]L[Cit]SSVP-OH; N-terminus and C-terminus assumed): the “Water solubility (in words)” value in data set [1] is on record as “not water soluble”.

For `CC(C)C[C@H](NC(=O)[C@H](CCCNC(N)=O)NC(=O)[C@@H](NC(=O)[C@H](C)NC(=O)[C@H](CO)NC(=O)[C@H](CO)NC(=O)[C@H](CCCNC(N)=O)NC(=O)[C@@H](NC(=O)[C@H](C)NC(=O)[C@H](Cc1ccc(O)cc1)NC(=O)[C@@H](NC(=O)CNC(=O)CN)C(C)C)[C@@H](C)O)C(C)C)C(=O)N[C@@H](CCCNC(N)=O)C(=O)N[C@@H](CO)C(=O)N[C@@H](CO)C(=O)N[C@H](C(=O)N1CCC[C@H]1C(=O)O)C(C)C` [DMB 1011, GGVYAT[Cit]SSAV[Cit]L[Cit]SSVP], the “Water solubility (in words)” value in data set [1] is “improved the peptide solubility in water; also recorded: water soluble”; in data set [1] (listed as SEQ ID NO: 11), “increases the water solubility”.

Turning to GGVYATRSSAV[Cit]LRSSVP [DMB 1014], in the data set with PBMCs, the “Stimulation response of peptides with same sequence but only one or two citrullines (in words)” value (shortened to “Stimulation response of peptides”) is recorded as “greatly diminished”; the “Stimulation of cells to produce TNF and IL-6 (in words)” value is on record as “failed to stimulate cells”.

Turning to GGVYATRSSAV[Cit]L[Cit]SSVP [DMB 1013], in the data set on PBMCs, the “Stimulation response of peptides” value is “greatly diminished”.

In the case of GGVYAT[Cit]SSAVRL[Cit]SSVP [DMB 1012], the “Stimulation response of peptides” value with PBMCs was “greatly diminished”.

On to “GGV[Cit]GP[Cit]VVE[CIT]HQSACKD (GGV[Cit]GP[Cit]VVE[Cit]HQSACKD) [DMB 1015]”, for which, in the data set with PBMCs, the “Stimulation of cells to produce TNF and IL-6 (in words)” value is “failed to stimulate cells”.

On to “GPRVVERHQSACKDS [DMB 1008, Fibrinogen alpha chain peptide, not citrullinated]”, for which the “TNFα concentration in culture supernatant” value (from here on “TNFα concentration”) was 7.1 pg/mL in the data set with PBMCs from RA patients (PBMC Sample 1) and 7.5 pg/mL in the data set with PBMCs from RA patients (PBMC Sample 2).

With GP[Cit]VVE[Cit]HQSACKDS [DMB 1007], the “TNFα concentration” value with PBMCs from RA patients (PBMC Sample 1) came to 4.3 pg/mL; in the data set with PBMCs from RA patients (PBMC Sample 2) it was 4.6 pg/mL.

“HQCHQESTRGRSRGRCGRSGS [DMB 1006, Filaggrin peptide, not citrullinated]”: the “TNFα concentration” value with PBMCs from RA patients (PBMC Sample 1) worked out at 2.7 pg/mL; in the data set on PBMCs from RA patients (PBMC Sample 2) it was 7.6 pg/mL.

Consider “HQCHQEST[Cit]GRSRGRCGRSGS (cysteine pairing not given here) [DMB 1005]”, for which the entries for the “TNFα concentration” value in the data set on PBMCs from RA patients (PBMC Sample 1) and in the data set with PBMCs from RA patients (PBMC Sample 2) were 2.1 pg/mL and 3.6 pg/mL, respectively.

For the compound “KIHAREIFDSRGNPTVE [DMB 1010, Alpha enolase peptide, not citrullinated]”, the “TNFα concentration” value in the data set with PBMCs from RA patients (PBMC Sample 1) worked out at 2.3 pg/mL; in the data set on PBMCs from RA patients (PBMC Sample 2), 3.6 pg/mL.

As to KIHA[Cit]EIFDS[Cit]GNPTVE [DMB 1009], the results for the “TNFα concentration” value in the data set with PBMCs from RA patients (PBMC Sample 1) and with PBMCs from RA patients (PBMC Sample 2) were 5.0 pg/mL and 6.4 pg/mL, respectively.

In the case of “NEEGFFSARGHRPLDKK [DMB 1004, Fibrinogen beta chain peptide, not citrullinated]”, the “TNFα concentration” value was 2.5 pg/mL in the data set on PBMCs from RA patients (PBMC Sample 1) and 6.7 pg/mL in the data set on PBMCs from RA patients (PBMC Sample 2).

For the compound NEEGFFSA[Cit]GHRPLDKK [DMB 1003], the “TNFα concentration” value in the data set on PBMCs from RA patients (PBMC Sample 1) was found to be 4.1 pg/mL; in the data set on PBMCs from RA patients (PBMC Sample 2), 2.2 pg/mL.

As to “VYATRSSAVRLRSSVP [DMB 1002, Vimentin-derived peptide, not citrullinated]”, in the data set on PBMCs from RA patients (PBMC Sample 1), the “IL1b concentration in cell culture” value came out at 1, the “IL6 concentration in cell culture” value is on record as 0 and the “TNFα concentration” value was found to be 7.7 pg/mL. For the same compound, in the data set with PBMCs from RA patients (PBMC Sample 2), the “IL1b concentration in cell culture” value is given as 0, the “IL6 concentration in cell culture” value is 0 and the “TNFα concentration” value worked out at 2.7 pg/mL.

Take “lipopolysaccharide [LPS, reference compound]”: the “TNFα concentration” value with PBMCs from RA patients (PBMC Sample 1) worked out at 1708.9 pg/mL; with PBMCs from RA patients (PBMC Sample 2), 508.9 pg/mL.

The values above are taken from US20140227303A1, “METHODS FOR DIAGNOSING AND MONITORING DISEASES OR CONDITIONS USING DISEASE MODIFIED BIOMOLECULES AND MEASUREMENT OF A FUNCTIONAL IMMUNE RESPONSE” (VIRACOR-IBT LABORATORIES, priority 2011, published 2014).
